Where two headings read alike, the source gives them in different places.
How the values were obtained:
[1] = tested on: fecal bile acid (FBA); assay: Fecal bile acids in hamsters, LUM001 for 28 days; assay type: in vivo, golden Syrian hamsters; conditions: for Weight-Adjusted Fecal Total Bile Acids Excretion: n=10
Experimental: Male golden Syrian hamsters (126-147 gm) were obtained from Charles Rivers Laboratories and were single housed in a constant temperature environment with alternating 12-hour light and dark cycles. Hamsters were fed Teklad 7001 rodent meal chow at libitum for two weeks before the experimental studies began and switched to Teklad 7001 rodent meal chow supplemented with 0.24% cholesterol on day one of the 28-day experiment. LUM001 was dissolved in an aqueous solution of 0.2% (w/v) Tween 80 and administered Q.D. by intragastric gavage between 9 a.m. and 10 a.m. each morning using a syringe fitted with a flexible feeding tube. Blood samples were collected after 14- and 28-day treatment periods by orbital sinus and cardiac puncture, respectively. Hamsters were anesthetized but not fasted prior to blood collections. Fecal samples were collected during a 48-hour period at the end of days 14 and 28 (i.e., days 13-14 and 27-28, respectively).
Fecal samples were collected to determine the fecal bile acid (FBA) concentration for each animal. The separate collections from each hamster were weighed and homogenized with distilled water with a Polytron tissue processor (Brinkman Instruments) to generate a homogeneous slurry. Fecal homogenate (1.4 grams) was extracted with 2.6 mL of a solution containing tertiary butanol:distilled water in the ratio of 2:0.6 [final concentration of 50% (v/v) tertiary butanol] for 45 minutes in a 37° C. water bath and subjected to centrifugation for 13 minutes at 2000×g. The concentration of bile acids (mmolesgram homogenate) was determined using a 96-well enzymatic assay system (6, 7). Aliquots of the fecal extracts (20 μl) were added to two sets of triplicate wells in a 96-well assay plate. A standardized sodium taurocholate solution and a standardized fecal extract solution (previously made from pooled samples and characterized for its bile acid concentration) were also analyzed for assay quality control. Aliquots of 90 mM sodium taurocholate ([…]), were serially diluted to generate a standard curve containing 30-540 nmoles/well. A […] aliquot of reaction mixture containing 1M hydrazine hydrate, 0.1 M pyrophosphate and 0.46 mg/ml NAD was added to each well. Subsequently, a […] aliquot of either 3a-hydroxysteroid dehydrogenase enzyme (HSD; 0.8 units/ml) or assay buffer (0.1 M sodium pyrophosphate) was then added to one each of the two sets of triplicates. Following 60 minutes of incubation at room temperature, the optical density at 340 nm was measured and the mean of each set of triplicate samples was calculated. The difference in optical density±HSD enzyme was used to determine the bile acid concentration (mM) of each sample based on the sodium taurocholate standard curve. The bile acid concentration of the extract (mmolesgram homogenate), the total weight of the fecal homogenate (grams) and the body weight of the hamsters (g) were used to calculate the corresponding FBA concentration in mmoles/day/kg body weight for each animal. All reagents used for the assay were obtained from Sigma Chemical Co., St. Louis, Mo. (HSD—catalog # H-1506; NAD—catalog # N1636; sodium taurocholate—catalog # T-4009).

[2] = Pharmacokinetics of LUM001 after oral solution and capsule in dogs; assay type: in vivo, Beagle dogs; conditions: for Cmax / Tmax / AUC(0-t) / bioavailability: female, Beagle, dog, plasma; for Cmax / Tmax / AUC(0-t): po, 7.5 mg/kg; for AUC(0-t): read-out: AUC(0-24 h); for bioavailability: read-out: BA (bioavailability)
Experimental: Three fasted female Beagle dogs were administered LUM001 either as an oral solution at doses of 1 or 7.5 mg LUM001 free form/kg or in an oral capsule at a dose of 7.5 mg LUM001 free form/kg in a cross-over design. A dose of 7.5 mg LUM001 free form/kg was also administered as an oral solution to fed beagle dogs to evaluate the effect of food on plasma concentrations of LUM001.
Blood samples of approximately 3 mL was collected by venipuncture or indwelling catheter into chilled tubes containing heparin at the following timepoints: 0 (predose), 0.5, 1, 1.5, 2, 3, 5, 6, 8, 10, and 24 hours. The plasma samples were prepared by centrifugation of blood within 30 minutes after sample collection. All samples were stored at −20° C.±5° C. until analysis to study the relative exposures of LUM001 free form after capsule or oral solution dosing.

[3] = oral capsule 7.5 mg/kg free form, fasted
[4] = oral solution 7.5 mg/kg free form, fed

SMILES: CCCCC1(CCCC)CS(=O)(=O)c2ccc(N(C)C)cc2[C@@H](c2ccc(OCc3ccc(C[N+]45CCN(CC4)CC5)cc3)cc2)[C@H]1O [LUM001]
- Weight-Adjusted Fecal Total Bile Acids Excretion, % change from vehicle group ([1]; 5 mg/kg/day): (+233) %
- Weight-Adjusted Fecal Total Bile Acids Excretion ([1]; 5 mg/kg/day): 60 µmol/day/kg
- Weight-Adjusted Fecal Total Bile Acids Excretion, % change from vehicle group ([1]; 15 mg/kg/day): (+267) %
- Weight-Adjusted Fecal Total Bile Acids Excretion ([1]; 15 mg/kg/day): 66 µmol/day/kg
- Weight-Adjusted Fecal Total Bile Acids Excretion, % change from vehicle group ([1]; 50 mg/kg/day): (+422) %
- Weight-Adjusted Fecal Total Bile Acids Excretion ([1]; 50 mg/kg/day): 94 µmol/day/kg
- Cmax [2, 3]: 4.24 ng/mL
- Tmax [2, 3]: 5 h
- AUC(0-t) [2, 3]: 0.0337 µg·h/mL
- Cmax [2, 4]: 1.28 ng/mL
- Tmax [2, 4]: 0.5 h
- AUC(0-t) [2, 4]: 0.0039 µg·h/mL
- bioavailability [2, 3]: < 0.1%
- bioavailability ([2]; oral solution 1 mg/kg free form, fasted): < 0.1%
- BA (bioavailability) ([2]; oral solution 7.5 mg/kg free form, fasted): <0.1%
- BA (bioavailability) [2, 4]: <0.1%

From US20140271734A1, “BILE ACID RECYCLING INHIBITORS FOR TREATMENT OF BARRETT'S ESOPHAGUS AND GASTROESOPHAGEAL REFLUX DISEASE” (LUMENA PHARMACEUTICALS, INC., priority 2013, published 2014)
